Assay results reported in patent US12662489B2 (Sitryx Therapeutics Limited, priority 2023, dated 2026).
Like-named read-outs stand apart in the source and are kept apart here. Blank lines part the entries; values can stand above or below the compound they belong to.

What was measured:
[1] = biological target: T1, MTHFD1 recombinant human enzyme (Homo sapiens, UniProt P11586); assay: MTHFD1 inhibition assay (NAD(P)H-Glo luminescence)
T1 sequence (P11586 2-291 limits assumed): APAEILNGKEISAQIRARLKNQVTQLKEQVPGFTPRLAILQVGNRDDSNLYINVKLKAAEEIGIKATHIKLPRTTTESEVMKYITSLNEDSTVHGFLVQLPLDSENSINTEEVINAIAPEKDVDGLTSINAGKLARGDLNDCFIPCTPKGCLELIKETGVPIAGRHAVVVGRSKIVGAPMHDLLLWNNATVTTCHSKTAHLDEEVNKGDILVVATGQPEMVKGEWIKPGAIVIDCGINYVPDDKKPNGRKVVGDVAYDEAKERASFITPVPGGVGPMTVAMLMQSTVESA

[2] = biological target: T2, human α4β2 neuronal nicotinic receptor (Homo sapiens, UniProt P17787+P43681); assay: α4β2 neuronal nicotinic receptor assay (agonist radioligand, [3H]cytisine); assay type: binding
T2 construct: host or cells: SH-SY5Y cells (membrane homogenates)
T2 sequence (P43681 29-627 limits assumed): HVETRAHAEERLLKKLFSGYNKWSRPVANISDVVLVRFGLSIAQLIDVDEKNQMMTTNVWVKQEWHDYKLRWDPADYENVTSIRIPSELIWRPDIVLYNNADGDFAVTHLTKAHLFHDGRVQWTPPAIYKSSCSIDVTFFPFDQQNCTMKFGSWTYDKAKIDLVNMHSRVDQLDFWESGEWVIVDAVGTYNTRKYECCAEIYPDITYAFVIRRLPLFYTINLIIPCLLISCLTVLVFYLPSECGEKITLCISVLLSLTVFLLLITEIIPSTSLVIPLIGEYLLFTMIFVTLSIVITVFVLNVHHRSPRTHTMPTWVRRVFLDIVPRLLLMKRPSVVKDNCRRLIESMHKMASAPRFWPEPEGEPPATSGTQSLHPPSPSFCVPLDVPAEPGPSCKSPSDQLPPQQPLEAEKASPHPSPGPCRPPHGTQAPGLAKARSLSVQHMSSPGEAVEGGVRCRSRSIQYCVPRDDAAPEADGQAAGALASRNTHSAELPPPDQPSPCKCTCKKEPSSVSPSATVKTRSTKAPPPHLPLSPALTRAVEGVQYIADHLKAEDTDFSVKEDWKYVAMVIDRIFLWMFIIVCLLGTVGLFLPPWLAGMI
T2 sequence (P17787 26-502): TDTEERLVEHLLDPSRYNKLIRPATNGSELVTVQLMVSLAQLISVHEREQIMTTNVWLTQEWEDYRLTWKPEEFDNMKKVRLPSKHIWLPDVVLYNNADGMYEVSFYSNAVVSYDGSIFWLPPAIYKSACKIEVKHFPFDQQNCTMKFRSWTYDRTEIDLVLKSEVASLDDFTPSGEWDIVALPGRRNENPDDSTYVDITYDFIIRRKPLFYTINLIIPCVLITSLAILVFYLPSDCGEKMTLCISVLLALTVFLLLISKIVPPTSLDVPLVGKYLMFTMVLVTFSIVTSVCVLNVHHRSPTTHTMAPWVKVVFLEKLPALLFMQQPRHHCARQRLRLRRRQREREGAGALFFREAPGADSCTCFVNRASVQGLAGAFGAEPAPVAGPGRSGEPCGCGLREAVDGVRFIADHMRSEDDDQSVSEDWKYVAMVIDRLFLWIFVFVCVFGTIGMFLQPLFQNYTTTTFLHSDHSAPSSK
Description: Cell membrane homogenates (30 μg protein) were incubated for 120 min at 4° C. with 0.6 nM [3H]cytisine in the absence or presence of the test compound in a buffer containing 50 mM Tris-HCl (pH 7.4), 120 mM NaCl, 5 mM KCl, 2.5 mM CaCl2 and 1 mM MgCl2. Nonspecific binding was determined in the presence of 10 μM nicotine bitartrate. Following incubation, the samples were filtered rapidly under vacuum through glass fiber filters (GF/B, Packard) presoaked with 0.3% PEI and rinsed several times with ice-cold 50 mM Tris-HCl using a 96-sample cell harvester (Unifilter, Packard).
The filters were dried then counted for radioactivity in a scintillation counter (Topcount, Packard) using a scintillation cocktail (Microscint 0, Packard). The results were expressed as a percent inhibition of the control radioligand specific binding. The standard reference compound was nicotine bitartrate.
A number of example compounds of formula (I) were tested to evaluate their affinity for the human α4β2 neuronal nicotinic receptor expressed in transfected SH-SY5Y cells, determined in a radioligand binding assay.

human CD4+ T cells = assay: Human CD4+ T-cell proliferation assay (CFSE, CD3/28 beads); details: read-out: Proliferation IC50
Description: Cells were incubated at room temperature for 8 minutes in a rotator in the dark. 13 mL cRPMI was added to each tube and cells were centrifuged at 500×g for 4 minutes at room temperature before pellets were resuspended in 10 mL cRPMI. Cells were counted using the Auto2000 Cellometer and AO/PI viability stain and concentration adjusted to 0.6×10^6 cells/mL in cRPMI. […] Control wells were included for flow cytometry and edge wells were filled with 200 μL 1×dPBS. Cells were incubated at 37° C., 5% CO2 for 2 days before compound treatment. […] Cells were incubated at 37° C., 5% CO2 for a further 2 days prior to flow staining and supernatant harvest.
On the final day plates were centrifuged at 500×g for 4 minutes at room temperature. 125 μL of supernatants were transferred to a V bottom 96 well polystyrene plate and stored at −80° C. Plates were gently vortexed to disrupt the cell pellets before 125 μL 1×PBS was added to each well. Plates were centrifuged at 500×g for 4 minutes at room temperature and supernatants removed from the plates by aspirating. Plates were gently vortexed and 30 μL of live/dead stain (Invitrogen, L34975) in 1×dPBS was added and incubated for 15 minutes in the dark at 4° C. […] 100 μL of flow cytometry buffer was added and plates were centrifuged at 500×g for 4 minutes before supernatants were aspirated from the plates. Wells were resuspended in 200 μL flow cytometry buffer and plates stored at 4° C. before being run on the flow cytometer.
Data was analysed using FlowJo and the compensation matrix applied to all samples. The gates were set using unstained and unstimulated samples.

[3] = biological target: T3, MTHFD2 recombinant human enzyme (Homo sapiens, UniProt P13995); assay: MTHFD2 inhibition assay (NAD(P)H-Glo luminescence); details: for MTHFD1/MTHFD2 IC50 ratio: selectivity of MTHFD2 inhibition over MTHFD1, band
T3 sequence (P13995 36-350): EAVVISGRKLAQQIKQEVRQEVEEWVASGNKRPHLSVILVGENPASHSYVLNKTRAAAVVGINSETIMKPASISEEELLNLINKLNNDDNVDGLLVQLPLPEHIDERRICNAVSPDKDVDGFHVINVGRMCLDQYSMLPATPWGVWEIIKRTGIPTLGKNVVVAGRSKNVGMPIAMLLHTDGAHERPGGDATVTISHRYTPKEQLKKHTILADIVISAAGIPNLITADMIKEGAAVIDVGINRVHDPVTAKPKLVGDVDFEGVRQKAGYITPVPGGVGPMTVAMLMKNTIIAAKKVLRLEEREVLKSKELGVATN

[4] = MTHFD1 IC50, recombinant human enzyme 200 nM, NADP, band
[5] = transfected SH-SY5Y cell membranes, 0.6 nM [3H]cytisine, band

Structure (SMILES): COC[C@H]1CN(c2cc(C)c3c4c(c(=O)oc3c2C)CN(C(=O)c2ccc(C(=O)NS(=O)(=O)N(C)C)c(N3CCCC3)c2)CC4)CCN1C [Example 20, (R)-N-(N,N-dimethylsulfamoyl)-4-(8-(3-(methoxymethyl)-4-methylpiperazin-1-yl)-7,10-dimethyl-5-oxo-1,3,4,5-tetrahydro-2H-chromeno[3,4-c]pyridine-3-carbonyl)-2-(pyrrolidin-1-yl)benzamide]
- IC50 [1, 4]: 1 to 10 nM
- IC50 [2, 5]: 2000 to 20000 nM
- IC50 [3]: 1 to 10 nM
- MTHFD1/MTHFD2 IC50 ratio [3]: G (^ 3 to 9.0)

Structure (SMILES): COC[C@H]1CN(c2cc(C)c3c4c(c(=O)oc3c2C)CN(C(=O)c2cc(N(C)C)c(C(=O)NS(=O)(=O)C3(C)CC3)cc2F)CC4)CCN1C [Example 145, (R)-2-(dimethylamino)-5-fluoro-4-(8-(3-(methoxymethyl)-4-methylpiperazin-1-yl)-7,10-dimethyl-5-oxo-1,3,4,5-tetrahydro-2H-chromeno[3,4-c]pyridine-3-carbonyl)-N-((1-methylcyclopropyl)sulfonyl)benzamide]
- IC50 [1, 4]: 100 to 1000 nM
- IC50 [2, 5]: > 100000 nM
- IC50 (human CD4+ T cells): 10 to 30 nM
- IC50 [3]: 1 to 10 nM
- MTHFD1/MTHFD2 IC50 ratio [3]: J (>30)

Structure (SMILES): COC[C@H]1CN(c2ccc3c4c(c(=O)oc3c2C)CN(C(=O)c2ccc(C(=O)NS(=O)(=O)N3CCCC3)c(OC3CCC3)c2F)CC4)CCN1C [Example 54, (R)-2-cyclobutoxy-3-fluoro-4-(8-(3-(methoxymethyl)-4-methylpiperazin-1-yl)-7-methyl-5-oxo-1,3,4,5-tetrahydro-2H-chromeno[3,4-c]pyridine-3-carbonyl)-N-(pyrrolidin-1-ylsulfonyl)benzamide]
- IC50 [1, 4]: 10 to 100 nM
- IC50 [2, 5]: > 100000 nM
- IC50 (human CD4+ T cells): 10 to 30 nM
- IC50 [3]: 10 to 100 nM
- MTHFD1/MTHFD2 IC50 ratio [3]: F (<3)

Structure (SMILES): COC[C@H]1CN(c2cc(C)c3c4c(c(=O)oc3c2C)CN(C(=O)c2ccc(C(=O)NS(=O)(=O)C3(C)CC3)c(N3CCCC3)c2)CC4)CCN1C [Example 45, (R)-4-(8-(3-(methoxymethyl)-4-methylpiperazin-1-yl)-7,10-dimethyl-5-oxo-1,3,4,5-tetrahydro-2H-chromeno[3,4-c]pyridine-3-carbonyl)-N-((1-methylcyclopropyl)sulfonyl)-2-(pyrrolidin-1-yl)benzamide]
- IC50 [1, 4]: 10 to 100 nM
- IC50 [2, 5]: 20000 to 100000 nM
- IC50 [3]: 1 to 10 nM
- MTHFD1/MTHFD2 IC50 ratio [3]: H (>9.0 to 30)

Structure (SMILES): Cc1c(N2CCN(C)[C@@H](C)C2)ccc2c3c(c(=O)oc12)CN(C(=O)c1ccc(NS(C)(=O)=O)c(OC(F)(F)F)c1)CC3 [Reference Example 1, reference compound]
- IC50 [1, 4]: 100 to 1000 nM
- IC50 ([1]; MTHFD1 IC50, specific value, average of multiple repeats): 410 nM
- IC50 [2]: < 2000 nM
- IC50 [2, 5]: < 2000 nM
- IC50 ([3]; MTHFD2 IC50, recombinant human enzyme 40 nM, NAD+, band): 10 to 100 nM
- IC50 ([3]; MTHFD2 IC50, specific value, average of multiple repeats): 45 nM

Structure (SMILES): COC[C@H]1CN(c2cc(C)c3c4c(c(=O)oc3c2C)CN(C(=O)c2ccc(C(=O)NS(=O)(=O)N(C)C(C)C)c(OC3CCC3)c2F)CC4)CCN1C [Example 25, (R)-2-cyclobutoxy-3-fluoro-N-(N-isopropyl-N-methylsulfamoyl)-4-(8-(3-(methoxymethyl)-4-methylpiperazin-1-yl)-7,10-dimethyl-5-oxo-1,3,4,5-tetrahydro-2H-chromeno[3,4-c]pyridine-3-carbonyl)benzamide]
- IC50 [1, 4]: 1 to 10 nM
- IC50 [2, 5]: 20000 to 100000 nM
- IC50 [3]: 1 to 10 nM
- MTHFD1/MTHFD2 IC50 ratio [3]: F (<3)

Structure (SMILES): COC[C@H]1CN(c2cc(C)c3c4c(c(=O)oc3c2C)CN(C(=O)c2ccc(C(=O)NS(=O)(=O)C3(C)CC3)c(OC3CCC3)c2)CC4)CCN1C [Example 2, (R)-2-cyclobutoxy-4-(8-(3-(methoxymethyl)-4-methylpiperazin-1-yl)-7,10-dimethyl-5-oxo-1,3,4,5-tetrahydro-2H-chromeno[3,4-c]pyridine-3-carbonyl)-N-((1-methylcyclopropyl)sulfonyl)benzamide]
- IC50 [1, 4]: 100 to 1000 nM
- IC50 [2, 5]: 20000 to 100000 nM
- IC50 [3]: 10 to 100 nM
- MTHFD1/MTHFD2 IC50 ratio [3]: G (^ 3 to 9.0)

Structure (SMILES): COC[C@H]1CN(c2cc(C)c3c4c(c(=O)oc3c2C)CN(C(=O)c2cc(N(C)C)c(C(=O)NS(=O)(=O)N3C5CCC3CC5)cc2F)CC4)CCN1C [Example 255, (R)-N-((7-azabicyclo[2.2.1]heptan-7-yl)sulfonyl)-2-(dimethylamino)-5-fluoro-4-(8-(3-(methoxymethyl)-4-methylpiperazin-1-yl)-7,10-dimethyl-5-oxo-1,3,4,5-tetrahydro-2H-chromeno[3,4-c]pyridine-3-carbonyl)benzamide]
- IC50 [1, 4]: 1000 to 5000 nM
- IC50 (human CD4+ T cells): 10 to 30 nM
- IC50 [3]: 1 to 10 nM
- MTHFD1/MTHFD2 IC50 ratio [3]: J (>30)

Further lines, with some results ahead:

- IC50 [1, 4]: 10 to 100 nM
- IC50 [2, 5]: > 100000 nM
- IC50 [3]: 10 to 100 nM
- MTHFD1/MTHFD2 IC50 ratio [3]: G (^ 3 to 9.0)
Structure (SMILES): COC[C@H]1CN(c2cc(C)c3c4c(c(=O)oc3c2C)CN(C(=O)c2ccc(C(=O)NS(=O)(=O)C3(C)CC3)c(N3CCCC3)c2F)CC4)CCN1C [Example 69, (R)-3-fluoro-4-(8-(3-(methoxymethyl)-4-methylpiperazin-1-yl)-7,10-dimethyl-5-oxo-1,3,4,5-tetrahydro-2H-chromeno[3,4-c]pyridine-3-carbonyl)-N-((1-methylcyclopropyl)sulfonyl)-2-(pyrrolidin-1-yl)benzamide]
- IC50 (human CD4+ T cells): 1 to 10 nM

- IC50 [1, 4]: 10 to 100 nM
- IC50 [2, 5]: > 100000 nM
- IC50 [3]: 1 to 10 nM
- MTHFD1/MTHFD2 IC50 ratio [3]: G (^ 3 to 9.0)
Structure (SMILES): COC[C@H]1CN(c2ccc3c4c(c(=O)oc3c2C)CN(C(=O)c2ccc(C(=O)NS(=O)(=O)N(C)C)c(N3CCCC3)c2)CC4)CCN1C [Example 18, (R)-N-(N,N-dimethylsulfamoyl)-4-(8-(3-(methoxymethyl)-4-methylpiperazin-1-yl)-7-methyl-5-oxo-1,3,4,5-tetrahydro-2H-chromeno[3,4-c]pyridine-3-carbonyl)-2-(pyrrolidin-1-yl)benzamide]

- IC50 [1, 4]: 1 to 10 nM
- IC50 [2, 5]: 20000 to 100000 nM
- IC50 [3]: 1 to 10 nM
- MTHFD1/MTHFD2 IC50 ratio [3]: F (<3)
Structure (SMILES): COC[C@H]1CN(c2cc(C)c3c4c(c(=O)oc3c2C)CN(C(=O)c2ccc(C(=O)NS(=O)(=O)N3CCCC3)c(OC3CCCC3)c2F)CC4)CCN1C [Example 4, (R)-2-(cyclopentyloxy)-3-fluoro-4-(8-(3-(methoxymethyl)-4-methylpiperazin-1-yl)-7,10-dimethyl-5-oxo-1,3,4,5-tetrahydro-2H-chromeno[3,4-c]pyridine-3-carbonyl)-N-(pyrrolidin-1-ylsulfonyl)benzamide]
- IC50 (human CD4+ T cells): 1 to 10 nM

- IC50 [1, 4]: 10 to 100 nM
- IC50 [2, 5]: 20000 to 100000 nM
- IC50 [3]: 1 to 10 nM
- MTHFD1/MTHFD2 IC50 ratio [3]: G (^ 3 to 9.0)
Structure (SMILES): CCOc1c(C(=O)NS(=O)(=O)N2CCCC2)ccc(C(=O)N2CCc3c(c(=O)oc4c(C)c(N5CCN(C)[C@@H](COC)C5)cc(C)c34)C2)c1F [Example 147, (R)-2-ethoxy-3-fluoro-4-(8-(3-(methoxymethyl)-4-methylpiperazin-1-yl)-7,10-dimethyl-5-oxo-1,3,4,5-tetrahydro-2H-chromeno[3,4-c]pyridine-3-carbonyl)-N-(pyrrolidin-1-ylsulfonyl)benzamide]
- IC50 (human CD4+ T cells): 1 to 10 nM

- IC50 [1, 4]: 1 to 10 nM
- IC50 [2, 5]: 20000 to 100000 nM
- IC50 [3]: 1 to 10 nM
- MTHFD1/MTHFD2 IC50 ratio [3]: F (<3)
Structure (SMILES): COC[C@H]1CN(c2cc(C)c3c4c(c(=O)oc3c2C)CN(C(=O)c2ccc(C(=O)NS(=O)(=O)N(C)C(C)C)c(OC3CCCC3)c2F)CC4)CCN1C [Example 24, (R)-2-(cyclopentyloxy)-3-fluoro-N-(N-isopropyl-N-methylsulfamoyl)-4-(8-(3-(methoxymethyl)-4-methylpiperazin-1-yl)-7,10-dimethyl-5-oxo-1,3,4,5-tetrahydro-2H-chromeno[3,4-c]pyridine-3-carbonyl)benzamide]

- IC50 [1, 4]: 1 to 10 nM
- IC50 [2, 5]: > 100000 nM
- IC50 [3]: 1 to 10 nM
- MTHFD1/MTHFD2 IC50 ratio [3]: F (<3)
Structure (SMILES): COC[C@H]1CN(c2ccc3c4c(c(=O)oc3c2C)CN(C(=O)c2ccc(C(=O)NS(=O)(=O)N3CCCC3)c(OC3CCCC3)c2F)CC4)CCN1C [Example 12, (R)-2-(cyclopentyloxy)-3-fluoro-4-(8-(3-(methoxymethyl)-4-methylpiperazin-1-yl)-7-methyl-5-oxo-1,3,4,5-tetrahydro-2H-chromeno[3,4-c]pyridine-3-carbonyl)-N-(pyrrolidin-1-ylsulfonyl)benzamide]
